In patent US20070128217A1 (priority 2003, published 2007):

Key:
[1] = system: rabbit serum obtained by immunizing a rabbit with the SARS-CoV strain Frankfurt 1; format: binding; parameters: Binding of a rabbit serum to linear peptides / Binding of a rabbit serum to looped peptides / Rabbit serum linear peptides / Rabbit serum looped peptides / Binding of a rabbit serum to linear peptides of protein N of SARS-CoV Urbani (Rabbit serum linear peptides) / Binding of a rabbit serum to looped/cyclic peptides of protein N of SARS-CoV Urbani (Rabbit serum looped peptides): unit not given here
[2] = system: control sera (pooled serum of ten healthy LUMC hospital workers; commercial negative donor pooled serum from the Dutch bloodbank); format: binding, human; parameters: Binding of Control serum LUMC to linear peptides / Binding of Control serum Blood-bank to linear peptides / Binding of Control serum LUMC to looped peptides / Binding of Control Serum Blood-Bank to Looped peptides / Binding of Control serum LUMC to linear peptides of the protein M of SARS-CoV Urbani / Binding of Control serum Blood-bank to linear peptides of the protein M of SARS-CoV Urbani / Binding of Control serum LUMC to looped peptides of the protein M of SARS-CoV Urbani / Binding of Control Serum Blood-Bank to Looped peptides of the protein M of SARS-CoV Urbani: unit not given here
[3] = system: recombinant human anti-SARS-CoV antibody 03-018; format: binding; parameters: Binding of antibody 03-018 to linear peptides of the N protein of SARS-CoV Urbani / Binding of antibody 03-018 to looped/cyclic peptides of the N protein of SARS-CoV Urbani: unit not given here
[4] = system: antibodies in sera from SARS patients (sera 1a, 1b, 2, 6, 37, 62, London, SARS-yellow, SARS-green); format: binding, human; parameters: Binding of serum 6 to linear peptides of protein X1 of SARS-CoV Urbani / Binding of serum 37 to linear peptides of protein X1 of SARS-CoV Urbani / Binding of serum 6 to looped/cyclic peptide (PEPSCAN-ELISA) / Binding of serum 37 to looped/cyclic peptide (PEPSCAN-ELISA) / Binding of serum 37 to looped/cyclic peptides of protein X1 of SARS-CoV Urbani / Binding of serum 6 to linear peptides of protein X2 / Binding of serum 37 to linear peptides of protein X2 / Binding of serum 37 to looped/cyclic peptides of protein X2 of SARS-CoV Urbani / Binding of serum 6 to linear peptides of protein M of SARS-CoV Urbani / Binding of serum 37 to linear peptides of protein M of SARS-CoV Urbani / Binding of serum 6 to looped/cyclic peptides of protein M of SARS-CoV Urbani / Binding of serum 37 to looped/cyclic peptides of protein M of SARS-CoV Urbani / Binding of serum 6 to linear peptides of protein X3 of SARS-CoV Urbani / Binding of serum 37 to linear peptides of protein X3 of SARS-CoV Urbani / Binding of serum 37 to looped/cyclic peptides of protein X3 of SARS-CoV Urbani / Binding of serum 6 to linear peptides of protein X4 of SARS-CoV Urbani / Binding of serum 37 to linear peptides of protein X4 of SARS-CoV Urbani / Binding of serum 37 to looped/cyclic peptides of protein X4 of SARS-CoV Urbani / Binding of serum 6 to linear peptides of protein X5 of SARS-CoV Urbani / Binding of serum 37 to linear peptides of protein X5 of SARS-CoV Urbani / Binding of serum 37 to looped/cyclic peptides of protein X5 of SARS-CoV Urbani / Binding of serum 6 to linear peptides of protein N of SARS-CoV Urbani / Binding of serum 37 to linear peptides of protein N of SARS-CoV Urbani / Binding of serum 6 to linear peptide (PEPSCAN-ELISA) / Binding of serum 1a to looped/cyclic peptides of protein N of SARS-CoV Urbani / Binding of serum 1b to looped/cyclic peptides of protein N of SARS-CoV Urbani / Binding of serum 2 to looped/cyclic peptides of protein N of SARS-CoV Urbani / Binding of serum 6 to looped/cyclic peptides of protein N of SARS-CoV Urbani / Binding of serum 37 to looped/cyclic peptides of protein N of SARS-CoV Urbani / Binding of serum 62 to looped/cyclic peptides of protein N of SARS-CoV Urbani / Binding of serum London to looped/cyclic peptides of protein N of SARS-CoV Urbani / Binding of serum SARS-green to looped/cyclic peptides of protein N of SARS-CoV Urbani: unit not given here

ADMDDFSRQLQNSMS
Binding of a rabbit serum to linear peptides of protein N of SARS-CoV Urbani (Rabbit serum linear peptides) [1]: 0.2 | Binding of a rabbit serum to looped/cyclic peptides of protein N of SARS-CoV Urbani (Rabbit serum looped peptides) [1]: 0.4 | Control Serum Blood-Bank Looped peptides [2]: 0.4 | Control serum Blood-bank linear peptides [2]: 0.8 | Control serum LUMC linear peptides [2]: 0.7 | Control serum LUMC looped peptides [2]: 0.2 | Binding of antibody 03-018 to linear peptides of the N protein of SARS-CoV Urbani [3]: 0.1 | Binding of antibody 03-018 to looped/cyclic peptides of the N protein of SARS-CoV Urbani [3]: 0.1 | Binding of serum 1a to linear peptides of protein N of SARS-CoV Urbani [4]: 0.3 | Binding of serum 1a to looped/cyclic peptides of protein N of SARS-CoV Urbani [4]: 0.3 | Binding of serum 1b to linear peptides of protein N of SARS-CoV Urbani [4]: 0.2 | Binding of serum 1b to looped/cyclic peptides of protein N of SARS-CoV Urbani [4]: 0.2 | Binding of serum 2 to linear peptides of protein N of SARS-CoV Urbani [4]: 0.2 | Binding of serum 2 to looped/cyclic peptides of protein N of SARS-CoV Urbani [4]: 0.2 | Binding of serum 6 to linear peptides of protein N of SARS-CoV Urbani [4]: 1.5 | Binding of serum 6 to looped/cyclic peptides of protein N of SARS-CoV Urbani [4]: 0.0 | Binding of serum 37 to linear peptides of protein N of SARS-CoV Urbani [4]: 0.7 | Binding of serum 37 to looped/cyclic peptides of protein N of SARS-CoV Urbani [4]: 0.4 | Binding of serum 62 to linear peptides of protein N of SARS-CoV Urbani [4]: 0.6 | Binding of serum 62 to looped/cyclic peptides of protein N of SARS-CoV Urbani [4]: 0.3 | Binding of serum London to linear peptides of protein N of SARS-CoV Urbani [4]: 0.8 | Binding of serum London to looped/cyclic peptides of protein N of SARS-CoV Urbani [4]: 0.2 | Binding of serum SARS-green to linear peptides of protein N of SARS-CoV Urbani [4]: 0.3 | Binding of serum SARS-green to looped/cyclic peptides of protein N of SARS-CoV Urbani [4]: 0.1 | Binding of serum SARS-yellow to linear peptides of protein N of SARS-CoV Urbani [4]: 0.7 | Binding of serum SARS-yellow to looped/cyclic peptides of protein N of SARS-CoV Urbani [4]: 0.2

AFGRRGPEQTQGNFG
Binding of a rabbit serum to linear peptides of protein N of SARS-CoV Urbani (Rabbit serum linear peptides) [1]: 0.1 | Binding of a rabbit serum to looped/cyclic peptides of protein N of SARS-CoV Urbani (Rabbit serum looped peptides) [1]: 0.0 | Binding of Control Serum Blood-Bank to Looped peptides [2]: 0.4 | Binding of Control serum Blood-bank to linear peptides [2]: 0.6 | Binding of Control serum LUMC to linear peptides [2]: 0.5 | Binding of Control serum LUMC to looped peptides [2]: 0.3 | Binding of antibody 03-018 to linear peptides of the N protein of SARS-CoV Urbani [3]: 0.1 | Binding of antibody 03-018 to looped/cyclic peptides of the N protein of SARS-CoV Urbani [3]: 0.2 | Binding of serum 1a to linear peptide (PEPSCAN-ELISA) [4]: 0.2 | Binding of serum 1a to looped/cyclic peptides of protein N of SARS-CoV Urbani [4]: 0.3 | Binding of serum 1b to linear peptide (PEPSCAN-ELISA) [4]: 0.1 | Binding of serum 1b to looped/cyclic peptides of protein N of SARS-CoV Urbani [4]: 0.1 | Binding of serum 2 to linear peptide (PEPSCAN-ELISA) [4]: 0.2 | Binding of serum 2 to looped/cyclic peptides of protein N of SARS-CoV Urbani [4]: 0.3 | Binding of serum 6 to linear peptide (PEPSCAN-ELISA) [4]: 0.3 | Binding of serum 6 to looped/cyclic peptides of protein N of SARS-CoV Urbani [4]: 0.1 | Binding of serum 37 to linear peptide (PEPSCAN-ELISA) [4]: 0.5 | Binding of serum 37 to looped/cyclic peptides of protein N of SARS-CoV Urbani [4]: 0.3 | Binding of serum 62 to linear peptide (PEPSCAN-ELISA) [4]: 0.7 | Binding of serum 62 to looped/cyclic peptides of protein N of SARS-CoV Urbani [4]: 0.3 | Binding of serum London to linear peptide (PEPSCAN-ELISA) [4]: 0.8 | Binding of serum London to looped/cyclic peptides of protein N of SARS-CoV Urbani [4]: 0.3 | Binding of serum SARS-green to linear peptide (PEPSCAN-ELISA) [4]: 0.4 | Binding of serum SARS-green to looped/cyclic peptides of protein N of SARS-CoV Urbani [4]: 0.1 | Binding of serum SARS-yellow to linear peptide (PEPSCAN-ELISA) [4]: 0.6 | Binding of serum SARS-yellow to looped/cyclic peptides of protein N of SARS-CoV Urbani [4]: 0.1
